Source: US12527755B2, “Formulations containing acetaminophen and sulfoalkyl ether cyclodextrin” (CyDex Pharmaceuticals, Inc., priority 2016, dated 2026)
In brackets after ≈: the same amount, converted by molar mass.

Experiment: physchem
Settings: for solubility: pH 7, aqueous buffer, thermodynamic from solid
Description: The acetaminophen solubility was measured at 25° C. and 5° C.

CC(=O)Nc1ccc(O)cc1 [acetaminophen, N-acetyl-p-aminophenol]
solubility (5 °C): ~8.86 mg/mL (≈ 58.6 mM) | solubility (25 °C): ~16 mg/mL (≈ 106 mM) | CAPTISOL® concentration with which a 10 mg/ml acetaminophen solution can be made (pH 7): less than 0.05 M
